Consider one compound from patent US10165789B2, “Acerola powder for use as a substitute for ascorbic acid in the agri-food field” (DIANA NATURALS, priority 2012, dated 2019).

Marks after values point to notes of the source that are not given here.

The nature of experiment [1]: Antiradical activity, trapping of the free radical DPPH. In kind it is biochemical. To be noted: fixed concentration of 0.44 mg/ml ascorbic acid eq; tested in combination with Mg(OH)2 in the proportions present in the powder of the invention.
The nature of experiment [2]: Overall antioxidant power.

For `O=C1O[C@H]([C@@H](O)CO)C(O)=C1O` [Ascorbic acid], the “Antiradical activity (% of trapping of the free radical DPPH)” value in experiment [1] is listed as 70.6* %. Moreover, in experiment [2], the Overall antioxidant power was 34 g/100 g of product in ascorbic acid eq.
